Source: US7582418B2, “Antimicrobial chelates” (Albion Laboratories, Inc., priority 2004, dated 2009)

Tests used:
Assay type in all cases: cell-based
Staphlococcus aureus [1] = assay: Turbidity assay (TSB tubes, plated out); design: key: no-growth (NG) which corresponds with excellent inhibitory activity; partial growth (PG) which corresponds with good inhibitory activity; complete growth (CG) which corresponds with little or no inhibitory activity; conditions: TSB tube with 1.0 mL sample solution (100 mg/mL) and 50 μL 24-hour culture; after 24 hours plated, incubated 24 hours
Experimental: (§1) In the second method, turbidity assays were conducted. Tryptic soy broth (TSB) tubes were inoculated with 1.0 mL of sample solutions (100 mg/mL) and 50 μL of 24-hour cultures of each microbe. In the case of C. albicans, 100 μL of 24-hour culture was used. After 24 hours, an aliquot from each tube was plated out onto nutrient media and incubated for 24 hours. Following incubation, colonies on each plate were observed and characterized as one of three categories: no-growth (NG) which corresponds with excellent inhibitory activity, partial growth (PG) which corresponds with good inhibitory activity, complete growth (CG) which corresponds with little or no inhibitory activity.
(§2) S. pyongenes, could not be grown in the solution, so the turbidity assay was not conducted for that microorganism. When the data from both zone inhibition (Table 2) and turbidity (Table 3) assays are compared, an indication of the inhibition activity may be evident.

Eschrichia coli [2] = assay: Turbidity assay (TSB tubes, plated out); design: key: no-growth (NG) which corresponds with excellent inhibitory activity; partial growth (PG) which corresponds with good inhibitory activity; complete growth (CG) which corresponds with little or no inhibitory activity; conditions: TSB tube with 1.0 mL sample solution (100 mg/mL) and 50 μL 24-hour culture; after 24 hours plated, incubated 24 hours
Experimental: as §1, §2

Candida albicans [3] = assay: Turbidity assay (TSB tubes, plated out); design: key: no-growth (NG) which corresponds with excellent inhibitory activity; partial growth (PG) which corresponds with good inhibitory activity; complete growth (CG) which corresponds with little or no inhibitory activity; conditions: TSB tube with 1.0 mL sample solution (100 mg/mL) and 100 μL 24-hour culture; after 24 hours plated, incubated 24 hours
Experimental: as §1, §2

Staphlococcus aureus [4] = assay: Zone inhibition assay (filter paper disc area diffusion); conditions: distance from edge of disc to bacterial growth; discs saturated with 100 mg/ml solution (antibiotic control discs 5-30 μg); 24 hours at 37° C.
Experimental: (§3) Two methods were used to examine whether an inhibitory effect from the zinc containing compounds was observable and if there was an inhibitory effect, whether the effect was bactericidal (bacteria-killing) or bacteriostatic (bacterial-inhibiting) in nature. In the first method, two Gram-positive bacteria strains (Staphlococcus aureus, Streptococcus pyogenes), two Gram-negative bacteria strains (Salmonella typhimerium, Eschrichia coli), and one common yeast strain (Candida albicans) were grown nutrient agar plates, except in the case of S. pyogenes which was grown on blood agar plates.
(§4) Zone inhibition assays were conducted with eighteen different samples in accordance with the methodology described by Maruzella, J. C. and Henry, P. A., J. Am. Pharm. Assoc. 47:894 (1958) for filter paper disc area diffusion. Sample solutions were prepared to approximate 100 mg/mL concentrations.
(§5) Organisms were grown for 24 hours at 37° C. on blood agar plates with the exception of Candida albicans which was grown in a standard methods agar (SMA) medium. Solutions of each sample were prepared using sterile DD water at a concentration of 100 mg/ml. Paper discs were saturated with solution from each sample and dried aseptically. […] Following drying of solution derived discs, all discs were placed on agar plates with each of the five different microorganisms.

Salmonella typhimerium = assay: as above; conditions: distance from edge of disc to bacterial growth; discs saturated with 100 mg/ml solution (antibiotic control discs 5-30 μg); 24 hours at 37° C.
Experimental: as §3, §4, §5

Streptococcus pyogenes = assay: as above; conditions: distance from edge of disc to bacterial growth; blood agar; discs saturated with 100 mg/ml solution (antibiotic control discs 5-30 μg); 24 hours at 37° C.
Experimental: as §3, §4, §5

Eschrichia coli [5] = assay: as above; conditions: distance from edge of disc to bacterial growth; discs saturated with 100 mg/ml solution (antibiotic control discs 5-30 μg); 24 hours at 37° C.
Experimental: as §3, §4, §5

Candida albicans [6] = assay: as above; conditions: distance from edge of disc to growth; discs saturated with 100 mg/ml solution (antibiotic control discs 5-30 μg); 24 hours at 37° C.
Experimental: as §3, §4, §5

In the case of `O=S(=O)([O-])[O-].[Zn+2]` [Sample 4, Zinc Sulfate], the “colony growth category, Staphlococcus aureus” value (Staphlococcus aureus [1]) was “CG”, the “colony growth category, Eschrichia coli” value (Eschrichia coli [2]) was “CG” and the “colony growth category, Candida albicans” value (Candida albicans [3]) was “CG”. The “inhibitory zone, Staphlococcus aureus” value (Staphlococcus aureus [4]) was 3.7 millimeters, the “inhibitory zone, Salmonella typhimerium” value (Salmonella typhimerium) was 3 millimeters and the “inhibitory zone, Streptococcus pyogenes” value (Streptococcus pyogenes) was 2 millimeters. The “inhibitory zone, Eschrichia coli” value (Eschrichia coli [5]) was 3.5 millimeters and the “inhibitory zone, Candida albicans” value (Candida albicans [6]) was 2 millimeters.

For `CC1(C)S[C@@H]2[C@H](NC(=O)[C@H](N)c3ccc(O)cc3)C(=O)N2[C@H]1C(=O)O` [Sample 10, Amoxicillin], the “inhibitory zone, Staphlococcus aureus” value (Staphlococcus aureus [4]) was 7.5 millimeters, the “inhibitory zone, Salmonella typhimerium” value (Salmonella typhimerium) was 8 millimeters and the “inhibitory zone, Eschrichia coli” value (Eschrichia coli [5]) was 3.5 millimeters. The “inhibitory zone, Candida albicans” value (Candida albicans [6]) was “no activity”.

With `CC(=O)[O-].[Na+]` [Sample 15, Sodium Acetate] the “colony growth category, Staphlococcus aureus” value (Staphlococcus aureus [1]) was “NG”, the “colony growth category, Eschrichia coli” value (Eschrichia coli [2]) was “NG” and the “colony growth category, Candida albicans” value (Candida albicans [3]) was “CG”. The “inhibitory zone, Staphlococcus aureus” value (Staphlococcus aureus [4]) was “no activity”, the “inhibitory zone, Salmonella typhimerium” value (Salmonella typhimerium) was “no activity” and the “inhibitory zone, Streptococcus pyogenes” value (Streptococcus pyogenes) was “no activity”. The “inhibitory zone, Eschrichia coli” value (Eschrichia coli [5]) was “no activity” and the “inhibitory zone, Candida albicans” value (Candida albicans [6]) was “no activity”.

For `O=C([O-])CCCCC1CCSS1.O=C([O-])CCCCC1CCSS1.[Zn+2]` (stereo not drawn) [Sample 6, Zinc Lipoate], the “inhibitory zone, Staphlococcus aureus” value (Staphlococcus aureus [4]) was 1.5 millimeters, the “inhibitory zone, Salmonella typhimerium” value (Salmonella typhimerium) was 2 millimeters and the “inhibitory zone, Streptococcus pyogenes” value (Streptococcus pyogenes) was 1 millimeters. The “inhibitory zone, Eschrichia coli” value (Eschrichia coli [5]) was “.5 millimeters” and the “inhibitory zone, Candida albicans” value (Candida albicans [6]) was “no activity”.

With `CN[C@H](CC(C)C)C(=O)N[C@H]1C(=O)N[C@@H](CC(N)=O)C(=O)N[C@H]2C(=O)N[C@H]3C(=O)N[C@H](C(=O)N[C@H](C(=O)O)c4cc(O)cc(O)c4-c4cc3ccc4O)[C@H](O)c3ccc(c(Cl)c3)Oc3cc2cc(c3O[C@@H]2O[C@H](CO)[C@@H](O)[C@H](O)[C@H]2O[C@H]2C[C@](C)(N)[C@H](O)[C@H](C)O2)Oc2ccc(cc2Cl)[C@H]1O` [Sample 13, Vancomycin] the “inhibitory zone, Staphlococcus aureus” value (Staphlococcus aureus [4]) was 5 millimeters, the “inhibitory zone, Salmonella typhimerium” value (Salmonella typhimerium) was “no activity” and the “inhibitory zone, Streptococcus pyogenes” value (Streptococcus pyogenes) was 5 millimeters. For the same molecule, the “inhibitory zone, Eschrichia coli” value (Eschrichia coli [5]) was “no activity” and the “inhibitory zone, Candida albicans” value (Candida albicans [6]) was “no activity”.

For `NC[C@@H]1O[C@H](O[C@H]2[C@@H](O)[C@H](O[C@@H]3[C@@H](O)[C@H](N)C[C@H](N)[C@H]3O[C@H]3O[C@H](CN)[C@@H](O)[C@H](O)[C@H]3N)O[C@@H]2CO)[C@H](N)[C@@H](O)[C@@H]1O` [Sample 8, Neomycin], the “inhibitory zone, Staphlococcus aureus” value (Staphlococcus aureus [4]) was 6 millimeters, the “inhibitory zone, Salmonella typhimerium” value (Salmonella typhimerium) was 6 millimeters and the “inhibitory zone, Streptococcus pyogenes” value (Streptococcus pyogenes) was 3 millimeters. The “inhibitory zone, Eschrichia coli” value (Eschrichia coli [5]) was 3 millimeters and the “inhibitory zone, Candida albicans” value (Candida albicans [6]) was “no activity”.

For `NCC(=O)[O-].NCC(=O)[O-].[Zn+2]` [Sample 5, Zinc Bis-Glycinate], the “colony growth category, Staphlococcus aureus” value (Staphlococcus aureus [1]) was “PG (1)”, the “colony growth category, Eschrichia coli” value (Eschrichia coli [2]) was “NG” and the “colony growth category, Candida albicans” value (Candida albicans [3]) was “NG”. For the same molecule, the “inhibitory zone, Staphlococcus aureus” value (Staphlococcus aureus [4]) was 3.5 millimeters, the “inhibitory zone, Salmonella typhimerium” value (Salmonella typhimerium) was 3.5 millimeters and the “inhibitory zone, Streptococcus pyogenes” value (Streptococcus pyogenes) was 4 millimeters. The “inhibitory zone, Eschrichia coli” value (Eschrichia coli [5]) was 3.5 millimeters and the “inhibitory zone, Candida albicans” value (Candida albicans [6]) was 0.5 millimeters.

With `O=S(=O)([O-])[O-].[Na+].[Na+]` [Sample 17, Sodium Sulfate] the “inhibitory zone, Staphlococcus aureus” value (Staphlococcus aureus [4]) was “no activity”, the “inhibitory zone, Salmonella typhimerium” value (Salmonella typhimerium) was “no activity” and the “inhibitory zone, Streptococcus pyogenes” value (Streptococcus pyogenes) was “no activity”. For the same molecule, the “inhibitory zone, Eschrichia coli” value (Eschrichia coli [5]) was “no activity” and the “inhibitory zone, Candida albicans” value (Candida albicans [6]) was “no activity”.

In the case of `[Cl-].[Cl-].[Zn+2]` [Sample 1, Zinc Chloride], the “colony growth category, Staphlococcus aureus” value (Staphlococcus aureus [1]) was “PG”, the “colony growth category, Eschrichia coli” value (Eschrichia coli [2]) was “PG” and the “colony growth category, Candida albicans” value (Candida albicans [3]) was “PG”. For the same molecule, the “inhibitory zone, Staphlococcus aureus” value (Staphlococcus aureus [4]) was 6 millimeters, the “inhibitory zone, Salmonella typhimerium” value (Salmonella typhimerium) was 3.5 millimeters and the “inhibitory zone, Streptococcus pyogenes” value (Streptococcus pyogenes) was 2.5 millimeters. The “inhibitory zone, Eschrichia coli” value (Eschrichia coli [5]) was 4 millimeters and the “inhibitory zone, Candida albicans” value (Candida albicans [6]) was 4.5 millimeters.

`O=C(O)c1cn(C2CC2)c2cc(N3CCNCC3)c(F)cc2c1=O` [Sample 9, Ciproflaxicin] was tested, and the “inhibitory zone, Staphlococcus aureus” value (Staphlococcus aureus [4]) was 8.5 millimeters, the “inhibitory zone, Salmonella typhimerium” value (Salmonella typhimerium) was 10 millimeters and the “inhibitory zone, Streptococcus pyogenes” value (Streptococcus pyogenes) was 3 millimeters. The “inhibitory zone, Eschrichia coli” value (Eschrichia coli [5]) was 5 millimeters and the “inhibitory zone, Candida albicans” value (Candida albicans [6]) was “no activity”.

In the case of `NCC(=O)[O-].[Na+]` [Sample 16, Sodium Glycinate], the “inhibitory zone, Staphlococcus aureus” value (Staphlococcus aureus [4]) was “no activity”, the “inhibitory zone, Salmonella typhimerium” value (Salmonella typhimerium) was “no activity” and the “inhibitory zone, Streptococcus pyogenes” value (Streptococcus pyogenes) was “no activity”. The “inhibitory zone, Eschrichia coli” value (Eschrichia coli [5]) was “no activity” and the “inhibitory zone, Candida albicans” value (Candida albicans [6]) was “no activity”.

With `Cc1cc(NS(=O)(=O)c2ccc(N)cc2)no1` [Sample 12, Sulfamethoxazole] the “colony growth category, Staphlococcus aureus” value (Staphlococcus aureus [1]) was “CG”, the “colony growth category, Eschrichia coli” value (Eschrichia coli [2]) was “CG” and the “colony growth category, Candida albicans” value (Candida albicans [3]) was “CG”. For the same molecule, the “inhibitory zone, Staphlococcus aureus” value (Staphlococcus aureus [4]) was 3.5 millimeters, the “inhibitory zone, Salmonella typhimerium” value (Salmonella typhimerium) was 4 millimeters and the “inhibitory zone, Streptococcus pyogenes” value (Streptococcus pyogenes) was 7.5 millimeters. The “inhibitory zone, Eschrichia coli” value (Eschrichia coli [5]) was 3 millimeters and the “inhibitory zone, Candida albicans” value (Candida albicans [6]) was “no activity”.

`O=C([O-])CC(O)(CC(=O)[O-])C(=O)[O-].[Na+].[Na+].[Na+]` [Sample 18, Sodium Citrate] was tested, and the “inhibitory zone, Staphlococcus aureus” value (Staphlococcus aureus [4]) was “no activity”, the “inhibitory zone, Streptococcus pyogenes” value (Streptococcus pyogenes) was “no activity” and the “inhibitory zone, Eschrichia coli” value (Eschrichia coli [5]) was “no activity”. For the same molecule, the “inhibitory zone, Candida albicans” value (Candida albicans [6]) was “no activity”.

In the case of `[Cl-].[Na+]` [Sample 14, Sodium Chloride], the “inhibitory zone, Staphlococcus aureus” value (Staphlococcus aureus [4]) was “no activity”, the “inhibitory zone, Salmonella typhimerium” value (Salmonella typhimerium) was “no activity” and the “inhibitory zone, Streptococcus pyogenes” value (Streptococcus pyogenes) was “no activity”. For the same molecule, the “inhibitory zone, Eschrichia coli” value (Eschrichia coli [5]) was “no activity” and the “inhibitory zone, Candida albicans” value (Candida albicans [6]) was “no activity”.

For `CN(C)[C@@H]1C(O)=C(C(N)=O)C(=O)[C@@]2(O)C(O)=C3C(=O)c4c(O)cccc4[C@@](C)(O)[C@H]3C[C@@H]12` [Sample 11, Tetracycline], the “inhibitory zone, Staphlococcus aureus” value (Staphlococcus aureus [4]) was 7.5 millimeters, the “inhibitory zone, Salmonella typhimerium” value (Salmonella typhimerium) was 7 millimeters and the “inhibitory zone, Streptococcus pyogenes” value (Streptococcus pyogenes) was “no activity”. The “inhibitory zone, Eschrichia coli” value (Eschrichia coli [5]) was 5.5 millimeters and the “inhibitory zone, Candida albicans” value (Candida albicans [6]) was “no activity”.

With `O=C([O-])CC(O)(CC(=O)[O-])C(=O)[O-].O=C([O-])CC(O)(CC(=O)[O-])C(=O)[O-].[Zn+2].[Zn+2].[Zn+2]` [Sample 2, Zinc Citrate] the “inhibitory zone, Staphlococcus aureus” value (Staphlococcus aureus [4]) was 1 millimeters, the “inhibitory zone, Streptococcus pyogenes” value (Streptococcus pyogenes) was 3.5 millimeters and the “inhibitory zone, Eschrichia coli” value (Eschrichia coli [5]) was 1.5 millimeters. For the same molecule, the “inhibitory zone, Candida albicans” value (Candida albicans [6]) was “no activity”.

With Zinc Gluconate [Sample 7] the “inhibitory zone, Staphlococcus aureus” value (Staphlococcus aureus [4]) was 3 millimeters, the “inhibitory zone, Salmonella typhimerium” value (Salmonella typhimerium) was 2.75 millimeters and the “inhibitory zone, Streptococcus pyogenes” value (Streptococcus pyogenes) was 5 millimeters. For the same molecule, the “inhibitory zone, Eschrichia coli” value (Eschrichia coli [5]) was 2 millimeters and the “inhibitory zone, Candida albicans” value (Candida albicans [6]) was “no activity”.

For `CC(=O)[O-].CC(=O)[O-].[Zn+2]` [Sample 3, Zinc Acetate], the “inhibitory zone, Staphlococcus aureus” value (Staphlococcus aureus [4]) was 2 millimeters, the “inhibitory zone, Salmonella typhimerium” value (Salmonella typhimerium) was 3 millimeters and the “inhibitory zone, Streptococcus pyogenes” value (Streptococcus pyogenes) was 3.5 millimeters. For the same molecule, the “inhibitory zone, Eschrichia coli” value (Eschrichia coli [5]) was 3 millimeters and the “inhibitory zone, Candida albicans” value (Candida albicans [6]) was 2 millimeters.
